Experimental data taken from patent US20030166721A1, “Choline derivative for the treatment of alzheimer's disease” (priority 2000, published 2003).

Experiments:
[1] = system: Wistar rats; assay: EEG spectral qualitative and quantitative analysis in freely moving rats after i.p. administration; assay type: in vivo, rat
Procedure: Young male Wistar rats (200-260) were used in the experiments, housed in a standard temperature and humidity conditions, with food and water ad libitum. […] After surgery all animals were housed 48 h to allow a complete recovery. 48 Hours after electrode implantation, the animals, placed in a transparent box and freely moving, were connected with an electroencephalograph and the electrocortical activity was continuously monitored and recorded. […] Qualitative and quantitative analysis on the electrocortical activity EEG recording was subsequently carried out. The animals were divided in 4 groups, the first group acted as the control, the second received cytidine-5′-diphosphocholine (CDP-choline), the third and fourth received PC-1 and PC-2, respectively (pivaloylcholine iodide and pivaloyleholine trimethylacetate, respectively). The control group received an equal volume of saline solution by the same procedure. […] Statistical analysis was performed by analysis of variance (ANOVA) for multiple measurements followed, if significant, by the post-hoc Tuckey-Kramer test. A comparison between groups was performed to exclude any individual variability.

[2] = molecular target: T1, Choline Specific Transport System (HUCT) (Rattus norvegicus, UniProt Q9JMD7); assay: EEG after ICV Hemicholinium-3 (choline uptake blocker) pretreatment; assay type: in vivo; settings: rats, i.p. at the active dose after Hch3 pretreatment
T1 construct: from tissue; host or cells: brain of living Wistar rats (in vivo, ICV microinfusion, EEG read-out)
T1 sequence (Q9JMD7 1-580): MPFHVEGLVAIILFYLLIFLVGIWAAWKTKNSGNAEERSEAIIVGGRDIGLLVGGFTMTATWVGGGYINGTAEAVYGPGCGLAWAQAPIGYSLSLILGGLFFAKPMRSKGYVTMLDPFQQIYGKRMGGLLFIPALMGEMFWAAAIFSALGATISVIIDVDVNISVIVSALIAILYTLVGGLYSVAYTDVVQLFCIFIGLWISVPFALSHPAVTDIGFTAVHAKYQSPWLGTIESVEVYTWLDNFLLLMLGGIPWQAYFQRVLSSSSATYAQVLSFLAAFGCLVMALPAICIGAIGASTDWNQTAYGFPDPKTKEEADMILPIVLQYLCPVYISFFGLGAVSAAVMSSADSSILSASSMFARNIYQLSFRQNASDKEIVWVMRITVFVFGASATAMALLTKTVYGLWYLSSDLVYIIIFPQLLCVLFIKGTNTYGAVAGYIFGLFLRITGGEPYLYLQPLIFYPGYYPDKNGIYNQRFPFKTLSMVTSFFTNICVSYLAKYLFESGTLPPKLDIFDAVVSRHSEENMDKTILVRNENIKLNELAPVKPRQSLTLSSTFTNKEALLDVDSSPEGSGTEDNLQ
Procedure: FIG. 4B—Effect on EEG spectrum power after treatment with PC-1 (5 mg i.p.) administered 15 min after microinfusion of Hch3 (0.1 ng/0.5 μl) in the III ventricule. As in FIG. 4a, time (min) is reported in abscissa, the EEG spectrum power expressed as μV^2/s is reported in ordinate. Graphics report the EEG spectrum total power (0.25-16 Hz).

[3] = system: NBM lesioned rats; assay: EEG in rats with unilateral AMPA lesion of Meynert nucleus basalis (NBM); assay type: in vivo, rat
Procedure: Male Wistar rats (200-250 g), anaesthetised with chloral hydrate (400 mg/kg), were subjected to unilateral lesion of Meynert nucleus basalis (NBM), by intracerebral infusion of α-amino-3-hydroxy-4-isoxazolepropionic acid (AMPA) (1.3 μg/0.5 μl). The animals were divided into four groups, the first two were subjected to NBM lesion; the third was a sham-operated group, and the last was the control group. Two weeks after the lesion, the animals were implanted under general anesthesia, with cortical electrodes (n=4) onto the fronto-parietal region, so as to make it possible, 24 hours later, to record the EEG activity of freely moving animals. EEG activity was continuously monitored and recorded for 60 min by a computerised EEG Berg-Fourier apparatus. Spontaneous activity of the EEG spectrum total power (0.25-16 Hz), as well as that of preselected frequency bands, was recorded for times of 5 min and quantitized (μV).
In order to quantitize AMPA-induced neuronal loss in NBM, coronal serial sections of rat brain were prepared, then stained with toluidine blue to verify the injection site and treated, by immunohistochemical procedure, with 192LR-NGF to quantitize the neuronal loss. Said sections were analysed by a computerized system for image analysis (Axiophoy Zeiss and Vidas Kintron). Statistical analysis of the data from the morphological study was performed by ANOVA followed, if significant, by the post-hoc Tuckey-Kramer test.
In lesioned animals (n=16), with about 45% neuronal loss at the NBM level (FIG. 5), EEG synchronization accompanied with significant increase (P<0.01) in total power (0.25-16 Hz), (170.4±25.8) of EEG spectrum (μV), as well as in higher frequency bands (6-9, 9-12 and 12-16 Hz) (FIG. 7; Tab. 4), was observed. EEG activity of half the NBM lesioned animals was further recorded. After recording the baseline EEG activity, this group of animals was intraperitoneally administered with a PC-1 single dose.

[4] = system: rats; assay: Synergistic effect with tacrine: qEEG of neocortical activity in rats; assay type: in vivo, rat; settings: n=7
Procedure: Results reported in Table 5 show the synergistic effect of the combination of tacrine with the choline derivatives of the present invention.
Vehicle: 2 ml/Kg; all drugs were administered i.p., PC-1 and PC-2 at corresponding equimolar doses (15 μmol/2 ml/kg^−1); THA (tacrine) (5 mg/kg) was administered 30 min before compounds; atropine (0.1 mg/kg) was injected 15 min before PC-1 and PC-2. The number of animals was 7 per each group. Values represent EEG power (μV/s).

[5] = after i.p. administration, % ± SEM
[6] = i.p. (vol. 0.5 ml), mean ± SEM, 7 tests
[7] = NBM unilaterally lesioned rats + PC-1 (5 mg i.p.), hemisphere ipsilateral to lesion
[8] = rats i.p., PC-1/PC-2 15 μmol/2 ml/kg, THA 5 mg/kg 30 min before, atropine 0.1 mg/kg 15 min before

CC(C)(C)C(=O)OCC[N+](C)(C)C.[I-] [PC-1, pivaloylcholine iodide]
Change of slow EEG spectrum components (FIG. 3) [1]: decrease in slow components (delta and theta) of the spectrum | Duration of the decrease in EEG total power ([1]; 5 mg i.p.): 15 min | Time to onset of EEG desynchronization and significant decrease in EEG total power ([1]; 5 mg i.p.): 15 min | EEG frequency band 0.25-3 Hz [1, 5]: 4.3 ± 0.7(*) % | EEG frequency band 3-6 Hz [1, 5]: 18 ± 0.6(*) % | EEG frequency band 6-9 Hz [1, 5]: 32.5 ± 1.3% | EEG frequency band 9-12 Hz [1, 5]: 19.3 ± 0.9% | EEG frequency band 12-16 Hz [1, 5]: 13 ± 1.0% | Effect of atropine given 15 min before the compound ([1]; atropine pretreatment): antagonize the effects | EEG total power (fronto-parietal cortex), Baseline ([1]; before i.p. injection (vol. 0.5 ml), mean ± SEM, 7 tests): 120 ± 2.9 | EEG total power (fronto-parietal cortex), 15′ [1, 6]: 82 ± 3.6(*) | EEG total power (fronto-parietal cortex), 30′ [1, 6]: 128 ± 3.2 | EEG total power (fronto-parietal cortex), 45′ [1, 6]: 110 ± 2.7 | EEG total power (fronto-parietal cortex), 60′ [1, 6]: 120 ± 4.3 | EEG total power (fronto-parietal cortex), 75′ [1, 6]: 125 ± 3.5 | EEG total power (fronto-parietal cortex), 90′ [1, 6]: 127 ± 4 | Alert response and EEG desynchronization after Hch3 pretreatment [2]: induced neither alert response not EEG desynchronization | Effect on EEG spectrum after NBM excitotoxic lesion (FIG. 7) ([3]; NBM lesioned rats (AMPA), 5 mg i.p.): restores both the normal composition of EEG spectrum and the distribution of its frequencies | Duration of the decrease in ECoG spectrum total power ([3]; NBM lesioned rats, 5 mg i.p.): about 15 min | Time to onset of alert response, EEG desynchronization and decrease in ECoG total power ([3]; NBM lesioned rats, 5 mg i.p.): ≤ 15 min | Change in 6 rhythm (0.25-3 Hz) ([3]; NBM lesioned rats, 5 mg i.p., P<0.05): significant decrease | ECoG spectrum total power, second value of printed pair ([3]; NBM lesioned rats, 5 mg i.p., presumably after PC-1): 96±20.3 | ECoG spectrum total power, first value of printed pair ([3]; NBM lesioned rats, 5 mg i.p., presumably before PC-1): 150±19.3 | EEG spectrum band 0.25-3 Hz [3, 7]: 3.4% | EEG spectrum band 3-6 Hz [3, 7]: 33.3% | EEG spectrum band 6-9 Hz [3, 7]: 23.5% | EEG spectrum band 9-12 Hz [3, 7]: 13.6% | EEG spectrum band 12-16 Hz [3, 7]: 14.6% | EEG power (qEEG of neocortical activity), 15″ [4, 8]: 68 μV/s | EEG power (qEEG of neocortical activity), 30″ [4, 8]: 120 μV/s | EEG power (qEEG of neocortical activity), 45″ [4, 8]: 127 μV/s | EEG power (qEEG of neocortical activity), 60″ [4, 8]: 115 μV/s | EEG power (qEEG of neocortical activity), 75″ [4, 8]: 129.5 μV/s | EEG power (qEEG of neocortical activity), 90″ [4, 8]: 117 μV/s | EEG power (qEEG of neocortical activity), 105″ [4, 8]: 132.5 μV/s | EEG power (qEEG of neocortical activity), 120″ [4, 8]: 18.5 μV/s | EEG power (qEEG of neocortical activity), 135″ [4, 8]: 135 μV/s | EEG effect with tacrine given 30 min before ([4]; rats, THA 5 mg/Kg i.p. 30 min before 15 μmol i.p.): long-lasting EEG desynchronization and significant decrease in EEG spectrum total power | EEG power (qEEG of neocortical activity), Baseline ([4]; rats, before i.p. treatment): 112.5 μV/s
